From patent US20180303824A1, “Compositions for deterring abuse of pharmaceutical products and alcohol” (priority 2015, published 2018)
Structures can show the parent of a compound that is named as a salt.

Assays:
[1] = Electrical conductivity of clay dispersions and drug solutions; type: physicochemical; conditions: for Conductivity, Mean / Conductivity, Trial 1 / Conductivity, Trial 2 / Conductivity, Trial 3 / pH, Mean / pH, Trial 1 / pH, Trial 2 / pH, Trial 3: dispersions
[2] = pH 3
Procedure: (§1) Into 10 mL of drug solution (containing 25 mg of tramadol HCl), 50 mg of talc was added and vortexed for 5 seconds followed by centrifugation @1500 rpm for 5 minutes. The solution was filtered through a 0.2 μm syringe filter; 0.5 ml of the supernatant solution was diluted with 10 ml of solvent, and then analyzed for drug concentration by UV spectroscopy @271 nm.
as §1, with “zinc acetate” for “talc”
The solution was filtered through a 0.2 μm syringe filter; 0.5 ml of the supernatant solution was diluted with 10 ml of solvent, and then analyzed for drug concentration by UV spectroscopy @271 nm.

| Compound | Conductivity, Mean [1] | Conductivity, Trial 1 [1] | Conductivity, Trial 2 [1] | Conductivity, Trial 3 [1] | pH, Mean [1] | pH, Trial 1 [1] | pH, Trial 2 [1] | pH, Trial 3 [1] | % Bound [2] | Cond. ([1]; drug solution in 0.1N HCl, 100 μg/mL) | Cond. ([1]; drug solution in 0.1N HCl, 200 μg/mL) | Cond. ([1]; drug solution in 0.1N HCl, 250 μg/mL) | Cond. ([1]; drug solution in 0.1N HCl, 500 μg/mL) | Cond. ([1]; drug solution in 0.1N HCl, 1000 μg/mL) | Cond. ([1]; drug solution in ultrapure deionized water, 100 μg/mL) | Cond. ([1]; drug solution in ultrapure deionized water, 200 μg/mL) | Cond. ([1]; drug solution in ultrapure deionized water, 250 μg/mL) | Cond. ([1]; drug solution in ultrapure deionized water, 500 μg/mL) | Cond. ([1]; drug solution in ultrapure deionized water, 1000 μg/mL) |
| --- | --- | --- | --- | --- | --- | --- | --- | --- | --- | --- | --- | --- | --- | --- | --- | --- | --- | --- | --- |
| O=C([O-])[O-].[Na+].[Na+] [Na2CO3] | −247.7 mV | −247.4 mV | −248.3 mV | −247.5 mV | 11.40 | 11.40 | 11.42 | 11.40 | – | – | – | – | – | – | – | – | – | – | – |
| [Cl-].[Na+] [NaCl] | 40.3 mV | 34.7 mV | 33.6 mV | 52.6 mV | 6.38 | 6.48 | 6.50 | 6.16 | – | – | – | – | – | – | – | – | – | – | – |
| CC(=O)[O-].CC(=O)[O-].[Zn+2] [Zinc Acetate] | – | – | – | – | – | – | – | – | 2.9% | – | – | – | – | – | – | – | – | – | – |
| CN(C)CCOC(c1ccccc1)c1ccccc1 [diphenhydramine HCl] | – | – | – | – | – | – | – | – | – | 334.4 mV | 333.5 mV | 333.2 mV | 333.7 mV | 332.1 mV | 28.2 mV | 24.5 mV | 21.3 mV | 21.3 mV | 31.3 mV |
